Experimental data taken from US20120129811A1, “TRICYCLIC INHIBITORS OF PRO-MATRIX METALLOPROTEINASE ACTIVATION” (priority 2010, published 2012).
Structures can show the parent of a compound that is named as a salt.

Columns and labels:
[1] = biological target: T1, proMMP9(20-445;ΔFnII) (SEQ ID NO:6) (Homo sapiens, UniProt P14780, DEL216-390); test: ThermoFluor binding assay with proMMP9(20-445;ΔFnII)
T1 construct: start methionine (N); made in house; host or cells: E. coli BL21(DE3) RIL
T1 sequence (P14780 with tags, fused parts or gaps DEL216-390): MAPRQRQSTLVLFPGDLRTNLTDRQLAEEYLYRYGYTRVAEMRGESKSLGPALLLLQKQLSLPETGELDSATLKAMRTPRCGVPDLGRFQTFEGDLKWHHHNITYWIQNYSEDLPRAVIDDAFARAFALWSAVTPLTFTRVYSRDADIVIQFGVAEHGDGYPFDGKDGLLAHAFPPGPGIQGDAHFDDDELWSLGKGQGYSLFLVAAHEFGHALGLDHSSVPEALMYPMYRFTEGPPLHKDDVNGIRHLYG
In short: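 Protein thermal stability was measured with 2.8 μM proMMP9(20-445;ΔFnII) and 50 μM 1,8-ANS in 50 mM HEPES pH 7.0, 100 mM NaCl, 0.001% Tween-20, 2.5 mM MgCl2, 300 μM CaCl2, across serial compound dilutions. Samples were heated 40–90° C at 1° C/min with fluorescence read at 500 nm. Tm was fitted, and binding was derived from thermodynamic parameters obtained by DSC and ThermoFluor.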

[2] = biological target: T2, proMMP9(67-444;ΔFnII) (SEQ ID NO:5) (Homo sapiens, UniProt P14780, DEL216-390); test: ThermoFluor binding assay with proMMP9(67-444;ΔFnII)
T2 construct: start methionine (N); made in house; host or cells: E. coli BL21(DE3) RIL
T2 sequence (P14780 with tags, fused parts or gaps DEL216-390): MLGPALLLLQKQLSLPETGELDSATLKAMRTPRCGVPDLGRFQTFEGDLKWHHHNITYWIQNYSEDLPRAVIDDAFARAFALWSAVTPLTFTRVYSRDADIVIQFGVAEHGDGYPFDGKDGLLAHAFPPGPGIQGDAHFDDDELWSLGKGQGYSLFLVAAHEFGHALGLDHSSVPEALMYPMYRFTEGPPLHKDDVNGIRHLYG
In short: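 Thermal shift of 3.5 μM proMMP9(67-444;ΔFnII), desalted beforehand, with 50 μM 1,8-ANS in 50 mM HEPES pH 7.0, 100 mM NaCl, 2.5 mM MgCl2, 300 μM CaCl2, 0.001% Tween-20. Heated 40–90 °C at 1 °C/min, fluorescence read at 500 nm; binding fitted from Tm shifts using DSC- and ThermoFluor-derived unfolding parameters.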

[3] = biological target: T3, proMMP13(1-268) (SEQ ID NO:7) (Homo sapiens, UniProt P45452); test: ThermoFluor binding assay with proMMP13(1-268)
T3 construct: 6xHis (C); made in house; host or cells: HEK293 (transient, secreted)
Method: The ThermoFluor® (TF) assay is a 384-well plate-based binding assay that measures thermal stability of proteins (Biomol Screen 2001, 6, 429-40; Biochemistry 2005, 44, 5258-66). The experiments were carried out using instruments available from Johnson & Johnson Pharmaceutical Research & Development, LLC. TF dye used in all experiments was […] (1,8-ANS) (Invitrogen: A-47).
Compounds were arranged in a pre-dispensed plate (Greiner Bio-one: 781280), wherein compounds were serially diluted in 100% DMSO across 11 columns within a series. Columns 12 and 24 were used as DMSO reference and contained no compound. For multiple compound concentration-response experiments, the compound aliquots (50 nL) were robotically predispensed directly into black 384-well polypropylene PCR microplates (Abgene: TF-0384/k) using a Cartesian Hummingbird liquid handler (DigiLab, Holliston, Mass.). Following compound dispense, protein and dye solutions were added to achieve the final assay volume of 3 μL. The assay solutions were overlayed with 1 μL of silicone oil (Fluka, type DC 200: 85411) to prevent evaporation.
Assay plates were robotically loaded onto a thermostatically controlled PCR-type thermal block and then heated from 40 to 90° C. at a ramp-rate of 1° C./min for all experiments. Fluorescence was measured by continuous illumination with UV light (Hamamatsu LC6) supplied via fiber optics and filtered through a band-pass filter (380-400 nm; >60D cutoff). Fluorescence emission of the entire 384-well plate was detected by measuring light intensity using a CCD camera (Sensys, Roper Scientific) filtered to detect 500±25 nm, resulting in simultaneous and independent readings of all 384 wells. A single image with 20-sec exposure time was collected at each temperature, and the sum of the pixel intensity in a given area of the assay plate was recorded vs temperature and fit to standard equations to yield the Tm (J Biomol Screen 2001, 6, 429-40).
Thermodynamic parameters necessary for fitting compound binding for each proMMP were estimated by differential scanning calorimetry (DSC) and from ThermoFluor® data. The heat capacity of unfolding for each protein was estimated from the molecular weight and from ThermoFluor® dosing data.
ThermoFluor® with proMMP13(1-268) (SEQ ID NO: 7)
The proMMP13(1-268) (SEQ ID NO:7) protein sample preparations included a desalting buffer exchange step via a PD-10 gravity column (GE Healthcare). The desalting buffer exchange was performed prior to diluting the protein to the final assay concentration of 3.5 μM. The concentration of proMMP13(1-268) (SEQ ID NO:7) was estimated spectrophotometrically based on a calculated extinction coefficient of ε280=37000 M^−1 cm^−1, a calculated molecular weight of 30.8 kDa, and calculated pI of 5.33. ThermoFluor® reference conditions were defined as follows: 100 μg/mL proMMP13(1-268) (SEQ ID NO:7), 25 μM 1,8-ANS, pH 7.0 Buffer (50 mM HEPES pH 7.0, 100 mM NaCl, 0.001% Tween-20, 2.5 mM MgCl2, 300 μM CaCl2). The thermodynamic parameters for proMMP13(1-268) (SEQ ID NO:7) are as follows: Tm (° C.)=67 (+/−0.1), ΔUH(Tm)) (cal mol^−1)=107000(+/−5000), ΔUSTm (cal mol^−1 K^−1)=318, ΔUCp (cal mol^−1 K^−1)=2600.

[4] = biological target: T4, full-length proMMP9(1-707) activation by catalytic MMP3 (Homo sapiens, UniProt P14780, R574P); test: proMMP9/MMP3 P126 Activation Assay; type: biochemical
T4 construct: made in house; host or cells: proMMP9: HEK293 (secreted); MMP3: E. coli
T4 sequence (P14780 20-707 R574P): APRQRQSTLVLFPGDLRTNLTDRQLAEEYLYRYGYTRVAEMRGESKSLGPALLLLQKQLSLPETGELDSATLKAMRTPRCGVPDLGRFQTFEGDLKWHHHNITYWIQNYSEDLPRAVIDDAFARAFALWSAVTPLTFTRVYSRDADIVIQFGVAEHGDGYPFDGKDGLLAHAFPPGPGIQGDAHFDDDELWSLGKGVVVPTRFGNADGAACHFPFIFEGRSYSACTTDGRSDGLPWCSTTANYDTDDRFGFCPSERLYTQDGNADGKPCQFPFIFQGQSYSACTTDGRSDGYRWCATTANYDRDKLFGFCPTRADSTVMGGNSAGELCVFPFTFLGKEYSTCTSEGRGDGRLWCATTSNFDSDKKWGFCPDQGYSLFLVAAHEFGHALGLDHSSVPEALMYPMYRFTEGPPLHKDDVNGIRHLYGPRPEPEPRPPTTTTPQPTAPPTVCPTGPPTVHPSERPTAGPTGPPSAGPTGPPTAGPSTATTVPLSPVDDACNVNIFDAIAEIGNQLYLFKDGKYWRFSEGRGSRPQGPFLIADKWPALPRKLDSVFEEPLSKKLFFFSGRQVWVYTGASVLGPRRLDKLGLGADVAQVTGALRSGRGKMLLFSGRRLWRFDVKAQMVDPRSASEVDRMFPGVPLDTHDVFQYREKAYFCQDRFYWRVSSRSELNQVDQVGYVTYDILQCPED
Method: proMMP9/MMP3 P126 Activation Assay
The reaction volume was 50 μL. […] Reactivity of residual MMP3 towards P-126 substrate was minimal under these conditions.

SMILES	Kd [1] [µM]	Kd [2] [µM]	Kd [3] [µM]	IC50 [4] [µM]
COc1ccc(S(C)(=O)=O)cc1Nc1nc2c(ccc3c2ncn3C)s1 [Example 52, (5-Methanesulfonyl-2-methoxy-phenyl)-(6-methyl-6H-imidazo[4′,5′:3,4]benzo[2,1-d]thiazol-2-yl)-amine.HCl]	1.4	0.6	2.2	0.16
COc1cc(C)c(C(N)=O)cc1Nc1nc2c(ccc3c2ncn3C)s1 [Example 56, 4-Methoxy-2-methyl-5-(6-methyl-6H-imidazo[4′,5′:3,4]benzo[2,1-d]thiazol-2-ylamino)-benzamide.HCl]	1	3.3	9.8	1.1
COc1ccc(C(N)=O)cc1Nc1nc2c(ccc3c2ncn3C)s1 [Example 39, 4-Methoxy-3-(6-methyl-6H-imidazo[4′,5′:3,4]benzo[2,1-d]thiazol-2-ylamino)-benzamide.HCl]	0.44	0.052	1.5	0.094
COc1ccccc1Nc1nc2c(ccc3nc(N)sc32)s1 [Example 2, N^7-(2-Methoxy-phenyl)-benzo[1,2-d;3,4-d′]-bisthiazole-2,7-diamine.TFA]	2.2	0.41	8.7	1.3
COC(=O)c1ccc(OC)c(Nc2nc3c(ccc4c3ncn4C)s2)c1 [Example 61, 4-Methoxy-3-(6-methyl-6H-imidazo[4′,5′:3,4]benzo[2,1-d]thiazol-2-ylamino)-benzoic acid methyl ester.HCl]	3.2	0.86	2.1	0.65
COc1ccccc1Nc1nc2c(ccc3[nH]c(NC(C)=O)nc32)s1 [Example 16, N-[2-(2-Methoxy-phenylamino)-6H-imidazo[4′,5′:3,4]benzo[2,1-d]thiazol-7-yl]-acetamide.TFA]	5	0.99	19	0.89
COc1ccc(C(N)=O)cc1Nc1nc2c(s1)CCc1ncccc1-2 [Example 117, 3-(4,5-Dihydro-thiazolo[4,5-f]quinolin-2-ylamino)-4-methoxy-benzamide]	8.8	3.5	32	6
CCn1c(C)nc2c3nc(Nc4cc(C(N)=O)ccc4OC(C)C)sc3ccc21 [Example 34, 3-(6-Ethyl-7-methyl-6H-imidazo[4′,5′:3,4]benzo[2,1-d]thiazol-2-ylamino)-4-isopropoxy-benzamide.HCl]	0.12	0.14	4	0.11
COc1ccccc1Nc1nc2c(s1)CCCc1nc(N)sc1-2 [Example 14, N^8-(2-Methoxy-phenyl)-5,6-dihydro-4H-1,7-dithia-3,9-diaza-cyclopenta[e]azulene-2,8-diamine.TFA]	2.4	0.55	20	1.1
Cc1nc2ccc3sc(Nc4cc(C(=O)O)ccc4OC(C)C)nc3c2s1 [Example 24, 4-Isopropoxy-3-(2-methyl-benzo[1,2-d;3,4-d′]bisthiazol-7-ylamino)-benzoic acid.HCl]	1.2	0.52	8.4	0.38
COc1ccccc1Nc1nc2c(ccc3sc(N)nc32)s1 [Example 1, N^7-(2-Methoxy-phenyl)-benzo[2,1-d;3,4-d′]-bisthiazole-2,7-<diamine.TFA]	3.6	0.81	7	2.8
Cc1nc2c(ccc3sc(Nc4cc(C(=O)O)ccc4OC(C)C)nc32)[nH]1 [Example 20, 4-Isopropoxy-3-(7-methyl-6H-imidazo[4′,5′:3,4]-benzo[2,1-d]thiazol-2-ylamino)-benzoic acid.HCl]	1.4	0.19	1.9	0.24
COc1c(F)cc(F)cc1Nc1nc2c(ccc3c2ncn3C)s1 [Example 63, (3,5-Difluoro-2-methoxy-phenyl)-(6-methyl-6H-imidazo[4′,5′:3,4]benzo[2,1-d]thiazol-2-yl)-amine.HCl]	1.2	0.45	2.3	0.69
CC(C)Oc1ccc(C(N)=O)cc1Nc1nc2c(ccc3[nH]c(=O)[nH]c32)s1 [Example 23, 4-Isopropoxy-3-(7-oxo-7,8-dihydro-6H-imidazo[4′,5′:3,4]benzo[2,1-d]thiazol-2-ylamino)-benzamide.TFA]	0.59	0.97	3	0.84
Cc1nc2c3nc(Nc4cc(C(N)=O)ccc4OC(C)C)sc3ccc2n1C [Example 27, 3-(6,7-Dimethyl-6H-imidazo[4′,5′:3,4]benzo[2,1-d]thiazol-2-ylamino)-4-isopropoxy-benzamide.HCl]	0.13	0.039	0.53	0.058
CC(C)Oc1ccccc1Nc1nc2c(ccc3c2ncn3C)s1 [Example 32, (2-Isopropoxy-phenyl)-(6-methyl-6H-imidazo[4′,5′:3,4]benzo[2,1-d]thiazol-2-yl)-amine.HCl]	3.7	0.54	9.2	0.35
CCCn1c(C)nc2c3nc(Nc4cc(C(N)=O)ccc4OC(C)C)sc3ccc21 [Example 36, 4-Isopropoxy-3-(7-methyl-6-propyl-6H-imidazo[4′,5′:3,4]benzo[2,1-d]thiazol-2-ylamino)-benzamide.HCl]	0.17	0.71	2	0.3
COc1ccc(C(N)=O)cc1Nc1nc2c(ccc3cnccc32)s1 [Example 96, 4-Methoxy-3-(thiazolo[4,5-f]isoquinolin-2-ylamino)-benzamide.TFA]	0.73	0.44	–	0.73
